From patent US6479435B1, “Diaryl ethers and processes for their preparation and herbicidal and desiccant compositions containing them” (ISK Americas Incorporated, priority 1997, dated 2002)

What was measured:
Assay type in all cases: in vivo
[1] = test system: ivyleaf morningglory (Ipomoea hederacea, IPOHE); experiment: Pre-emerge greenhouse herbicide test, phytotoxicity rating; conditions: 14 days after application, rating scale 0-100
Procedure, shortened: (§1)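 Seeds sown in sandy loam one day before track-sprayer application of acetone solutions at 125–1000 g ai/ha (187 l/ha), then surface-watered to incorporate and bottom-watered. Injury scored visually at 14 days on a 0–100 scale (0 no damage, 100 complete death).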

[2] = test system: common ragweed (Ambrosia artemisiifolia L., AMBEL); experiment: as above; conditions: 14 days after application, rating scale 0-100
Procedure, shortened: as §1

[3] = test system: velvetleaf (Abutilon theophrasti, ABUTH); experiment: as above; conditions: 14 days after application, rating scale 0-100
Procedure, shortened: as §1

[4] = test system: Johnsongrass (Sorghum halepense, SORHA); experiment: as above; conditions: 14 days after application, rating scale 0-100
Procedure, shortened: as §1

[5] = test system: redroot pigweed (Amaranthus retroflexus, AMARE); experiment: as above; conditions: 14 days after application, rating scale 0-100
Procedure, shortened: as §1

[6] = test system: lambsquarters (Chenopodium album, CHEAL); experiment: as above; conditions: 14 days after application, rating scale 0-100
Procedure, shortened: as §1

[7] = test system: sicklepod (Cassia obtusifolia, CASOB); experiment: as above; conditions: 14 days after application, rating scale 0-100
Procedure, shortened: as §1

[8] = test system: large crabgrass (Digitaria sanguinalis, DIGSA); experiment: as above; conditions: 14 days after application, rating scale 0-100
Procedure, shortened: as §1

[9] = test system: barnyardgrass (Echinochloa crusgalli, ECHCG); experiment: as above; conditions: 14 days after application, rating scale 0-100
Procedure, shortened: as §1

[10] = test system: green foxtail (Setaria viridis, SETVI); experiment: as above; conditions: 14 days after application, rating scale 0-100
Procedure, shortened: as §1

[11] = test system: soybean (Glycine max L., var. Pella 86, SOY); experiment: Pre-emerge greenhouse test, crop damage rating; parameters: key to SOY crop damage rating: 0 = no damage, 100 = complete death of all plants; conditions: 14 days after application, rating scale 0-100
Procedure, shortened: as §1

[12] = test system: soybean (Glycine max L., var. Pella 86, SOY); experiment: Post-emerge greenhouse test, crop damage rating; parameters: key to crop damage rating SOY: 0-100 scale: 0 = no damage, 100 = complete death of all plants; conditions: 14 days after application, scale 0-100
Procedure, shortened: (§2)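 Plants at the 2-3 leaf stage, sown 8-21 days earlier, were track-sprayed post-emergence with compound in acetone plus 0.25% v/v non-ionic surfactant at 63-1000 g ai/ha (187 l/ha). Damage was rated at 14 days on a 0-100 scale (0 none, 100 all plants dead), for both crop injury and weed control.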

[13] = test system: field corn (Zea mays L., var. Dekalb 535, CORN); experiment: Pre-emerge greenhouse test, crop damage rating; conditions: 14 days after application, rating scale 0-100
Procedure, shortened: as §1

[14] = test system: upland rice (Oryza sp., var.Tebonnet, RICE); experiment: Pre-emerge greenhouse test, crop damage rating; conditions: 14 days after application, rating scale 0-100
Procedure, shortened: as §1

[15] = test system: common ragweed (Ambrosia artemisiifolia L., AMBEL); experiment: Post-emerge greenhouse herbicide test, phytotoxicity rating; conditions: 14 days after application, scale 0-100
Procedure, shortened: as §2

[16] = test system: ivyleaf morningglory (Ipomoea hederacea, IPOHE); experiment: as above; conditions: 14 days after application, scale 0-100
Procedure, shortened: as §2

[17] = test system: velvetleaf (Abutilon theophrasti, ABUTH); experiment: as above; conditions: 14 days after application, scale 0-100
Procedure, shortened: as §2

[18] = test system: Johnsongrass (Sorghum halepense, SORHA); experiment: as above; conditions: 14 days after application, scale 0-100
Procedure, shortened: as §2

[19] = test system: redroot pigweed (Amaranthus retroflexus, AMARE); experiment: as above; conditions: 14 days after application, scale 0-100
Procedure, shortened: as §2

[20] = test system: lambsquarters (Chenopodium album, CHEAL); experiment: as above; conditions: 14 days after application, scale 0-100
Procedure, shortened: as §2

[21] = test system: large crabgrass (Digitaria sanguinalis, DIGSA); experiment: as above; conditions: 14 days after application, scale 0-100
Procedure, shortened: as §2

[22] = test system: barnyardgrass (Echinochloa crusgalli, ECHCG); experiment: as above; conditions: 14 days after application, scale 0-100
Procedure, shortened: as §2

[23] = test system: green foxtail (Setaria viridis, SETVI); experiment: as above; conditions: 14 days after application, scale 0-100
Procedure, shortened: as §2

[24] = test system: field corn (Zea mays L., var. Dekalb 535, CORN); experiment: Post-emerge greenhouse test, crop damage rating; conditions: 14 days after application, scale 0-100
Procedure, shortened: as §2

[25] = test system: upland rice (Oryza sp., var.Tebonnet, RICE); experiment: Post-emerge greenhouse test, crop damage rating; conditions: 14 days after application, scale 0-100
Procedure, shortened: as §2

Cc1nsc(Oc2cc(-n3c(=O)n4n(c3=S)CCCC4)c(F)cc2Cl)c1[N+](=O)[O-] [Compound 8-35]
95: phytotoxicity rating IPOHE ([16]; rate 500 g ai/ha) | phytotoxicity rating AMARE ([19]; rate 63 g ai/ha)
0: DIGSA phytotoxicity rating ([8]; Rate 125 g al/ha) | SOY crop damage rating ([11]; Rate 125 g al/ha) | phytotoxicity rating DIGSA ([21]; rate 63 g ai/ha) | phytotoxicity rating ECHCG ([22]; rate 63 g ai/ha)
99: phytotoxicity rating CHEAL ([20]; rate 500 g ai/ha)
30: CASOB phytotoxicity rating ([7]; Rate 125 g al/ha) | SOY crop damage rating ([11]; Rate 500 g al/ha) | CORN crop damage rating ([13]; Rate 125 g al/ha) | CORN crop damage rating ([13]; Rate 500 g al/ha)
10: ECHCG phytotoxicity rating ([9]; Rate 125 g al/ha) | phytotoxicity rating AMBEL ([15]; rate 63 g ai/ha) | phytotoxicity rating AMBEL ([15]; rate 500 g ai/ha) | phytotoxicity rating DIGSA ([21]; rate 500 g ai/ha) | crop damage rating CORN ([24]; rate 63 g ai/ha) | crop damage rating CORN ([24]; rate 500 g ai/ha)
40: phytotoxicity rating IPOHE ([16]; rate 63 g ai/ha) | phytotoxicity rating SETVI ([23]; rate 63 g ai/ha)
100: IPOHE phytotoxicity rating ([1]; Rate 500 g al/ha) | ABUTH phytotoxicity rating ([3]; Rate 125 g al/ha) | ABUTH phytotoxicity rating ([3]; Rate 500 g al/ha) | AMARE phytotoxicity rating ([5]; Rate 125 g al/ha) | AMARE phytotoxicity rating ([5]; Rate 500 g al/ha) | CHEAL phytotoxicity rating ([6]; Rate 125 g al/ha) | CHEAL phytotoxicity rating ([6]; Rate 500 g al/ha) | CASOB phytotoxicity rating ([7]; Rate 500 g al/ha) | SETVI phytotoxicity rating ([10]; Rate 500 g al/ha) | phytotoxicity rating ABUTH ([17]; rate 63 g ai/ha) | phytotoxicity rating ABUTH ([17]; rate 500 g ai/ha) | phytotoxicity rating AMARE ([19]; rate 500 g ai/ha)
80: DIGSA phytotoxicity rating ([8]; Rate 500 g al/ha) | phytotoxicity rating SORHA ([18]; rate 500 g ai/ha) | phytotoxicity rating CHEAL ([20]; rate 63 g ai/ha) | phytotoxicity rating ECHCG ([22]; rate 500 g ai/ha)
50: IPOHE phytotoxicity rating ([1]; Rate 125 g al/ha) | AMBEL phytotoxicity rating ([2]; Rate 125 g al/ha) | crop damage rating RICE ([25]; rate 500 g ai/ha)
90: AMBEL phytotoxicity rating ([2]; Rate 500 g al/ha) | SORHA phytotoxicity rating ([4]; Rate 500 g al/ha) | ECHCG phytotoxicity rating ([9]; Rate 500 g al/ha) | SETVI phytotoxicity rating ([10]; Rate 125 g al/ha) | crop damage rating SOY ([12]; rate 500 g ai/ha)
70: RICE crop damage rating ([14]; Rate 500 g al/ha)
60: phytotoxicity rating SETVI ([23]; rate 500 g ai/ha)
20: SORHA phytotoxicity rating ([4]; Rate 125 g al/ha) | crop damage rating SOY ([12]; rate 63 g ai/ha) | crop damage rating RICE ([25]; rate 63 g ai/ha)

O=c1n(-c2cc(Oc3ncc([N+](=O)[O-])s3)c(Cl)cc2F)c(=S)n2n1CCCC2 [Compound 8-36]
60: phytotoxicity rating DIGSA ([21]; rate 250 g ai/ha)
95: phytotoxicity rating IPOHE ([16]; rate 250 g ai/ha) | phytotoxicity rating CHEAL ([20]; rate 63 g ai/ha)
70: IPOHE phytotoxicity rating ([1]; Rate 250 g al/ha) | CASOB phytotoxicity rating ([7]; Rate 250 g al/ha) | DIGSA phytotoxicity rating ([8]; Rate 125 g al/ha) | ECHCG phytotoxicity rating ([9]; Rate 250 g al/ha) | RICE crop damage rating ([14]; Rate 250 g al/ha)
100: AMBEL phytotoxicity rating ([2]; Rate 250 g al/ha) | ABUTH phytotoxicity rating ([3]; Rate 125 g al/ha) | ABUTH phytotoxicity rating ([3]; Rate 250 g al/ha) | AMARE phytotoxicity rating ([5]; Rate 125 g al/ha) | AMARE phytotoxicity rating ([5]; Rate 250 g al/ha) | CHEAL phytotoxicity rating ([6]; Rate 125 g al/ha) | CHEAL phytotoxicity rating ([6]; Rate 250 g al/ha) | SOY crop damage rating ([11]; Rate 250 g al/ha) | phytotoxicity rating IPOHE ([16]; rate 63 g ai/ha) | phytotoxicity rating ABUTH ([17]; rate 63 g ai/ha) | phytotoxicity rating ABUTH ([17]; rate 250 g ai/ha) | phytotoxicity rating AMARE ([19]; rate 63 g ai/ha) | phytotoxicity rating AMARE ([19]; rate 250 g ai/ha)
30: crop damage rating SOY ([12]; rate 63 g ai/ha) | RICE crop damage rating ([14]; Rate 125 g al/ha) | phytotoxicity rating SORHA ([18]; rate 63 g ai/ha) | phytotoxicity rating DIGSA ([21]; rate 63 g ai/ha) | phytotoxicity rating SETVI ([23]; rate 250 g ai/ha) | crop damage rating RICE ([25]; rate 250 g ai/ha)
99: SETVI phytotoxicity rating ([10]; Rate 250 g al/ha) | phytotoxicity rating CHEAL ([20]; rate 250 g ai/ha)
20: SORHA phytotoxicity rating ([4]; Rate 125 g al/ha) | CORN crop damage rating ([13]; Rate 250 g al/ha) | phytotoxicity rating AMBEL ([15]; rate 63 g ai/ha) | phytotoxicity rating AMBEL ([15]; rate 250 g ai/ha)
10: crop damage rating CORN ([24]; rate 63 g ai/ha) | crop damage rating CORN ([24]; rate 250 g ai/ha)
50: SORHA phytotoxicity rating ([4]; Rate 250 g al/ha) | phytotoxicity rating ECHCG ([22]; rate 63 g ai/ha)
90: IPOHE phytotoxicity rating ([1]; Rate 125 g al/ha) | AMBEL phytotoxicity rating ([2]; Rate 125 g al/ha) | CASOB phytotoxicity rating ([7]; Rate 125 g al/ha) | crop damage rating SOY ([12]; rate 250 g ai/ha) | phytotoxicity rating SORHA ([18]; rate 250 g ai/ha)
80: DIGSA phytotoxicity rating ([8]; Rate 250 g al/ha) | SETVI phytotoxicity rating ([10]; Rate 125 g al/ha)
40: phytotoxicity rating ECHCG ([22]; rate 250 g ai/ha) | crop damage rating RICE ([25]; rate 63 g ai/ha)
0: ECHCG phytotoxicity rating ([9]; Rate 125 g al/ha) | SOY crop damage rating ([11]; Rate 125 g al/ha) | CORN crop damage rating ([13]; Rate 125 g al/ha) | phytotoxicity rating SETVI ([23]; rate 63 g ai/ha)
